Reference: paper PMC3735939, “The low levels of eicosapentaenoic acid in rat brain phospholipids are maintained via multiple redundant mechanisms” (Journal of Lipid Research, 2013)

Legend:
[1] = cited from earlier work
[2] = In vivo kinetics of FA incorporation and turnover in brain phospholipids (intravenous radiotracer infusion, kinetic model); parameters: species or system rat
Protocol: Twenty-four hours postsurgery, a second catheter (iv catheter 24 gauge/0.75 inch, Angiocath™; Becton Dickinson) was implanted into the tail vein where rats received either vehicle or 10 mg/kg of MEP. […] The radiotracers were infused for 5 min via the tail vein catheter at a rate of 0.223(1 + e^−19.2t) ml/min (t is infusion time in minutes) ([37]) which achieves a steady-state plasma radioactivity within 1 min ([18], [38]). […] During the 5 min infusion, blood samples were collected from the jugular vein at approximately 0, 0.25, 0.5, 0.75, 1.5, 3, 4, and 5 min while the unanesthetized rat was mobile in the infusion box with food and water. […] After 5 min, the rats were rapidly euthanized by head-focused high-energy microwave irradiation (13.5 kW for 1.6 s; Cober Electronics Inc., Stratford, CT). The radiotracer infusions continued until rats were euthanized. The brain was excised and cut sagittally. Both hemispheres were stored at −80°C for radioactive and biochemical analyses. Plasma was isolated from whole blood via microcentrifugation at 6,200 rpm (2,000 g) for 5 min and stored at −80°C.
The model for in vivo kinetics of brain FAs in rats has been previously described ([17], [18], [21], [23], [25], [37], [41]).
Because the infusion is 5 min, contributions of FA from de novo synthesis and esterified plasma FA are negligible ([18], [20], [23], [41]); thus only contributions from plasma unesterified FAs and acyl-CoA pools were considered in the calculation of λpalmitate, DHA, or EPA .

In the case of `CCCCC/C=C\C/C=C\C/C=C\C/C=C\CCCC(=O)O` [ARA, arachidonic acid], the “rate of loss from brain phospholipids” value [1] is given as 2 % per day.

In the case of `CC/C=C\C/C=C\C/C=C\C/C=C\C/C=C\C/C=C\CCC(=O)SCCNC(=O)CCNC(=O)[C@H](O)C(C)(C)COP(=O)(O)OP(=O)(O)OC[C@H]1O[C@@H](n2cnc3c(N)ncnc32)[C@H](O)[C@@H]1OP(=O)(O)O` [DHA-CoA], the t1/2 half-life ([2]; Total PL, Vehicle) was “about 1 day” and the “JFA into brain total phospholipids, fold higher than EPA-CoA” value ([2]; vehicle injection) was 154 fold.

With `CC/C=C\C/C=C\C/C=C\C/C=C\C/C=C\C/C=C\CCC(=O)O` [EPA→DHA] the “FFA rate of turnover” value ([2]; ChoGpl, MEP) was 0.070 ± 0.01 %/day, the “JFA net incorporation rate from brain acyl-CoA” value (from here on “JFA net incorporation rate”) ([2]; ChoGpl, MEP) was 0.98 ± 0.14 nmol/g/day and the “Jin net incorporation rate from plasma unesterified FA” value (from here on “Jin net incorporation rate”) ([2]; ChoGpl, MEP) was 0.23 ± 0.02 nmol/g/day. For the same molecule, the “FFA rate of turnover” value ([2]; ChoGpl, Vehicle) was 0.30 ± 0.035 %/day, the “JFA net incorporation rate” value ([2]; ChoGpl, Vehicle) was 3.8 ± 0.54 nmol/g/day and the “Jin net incorporation rate” value ([2]; ChoGpl, Vehicle) was 0.46 ± 0.089 nmol/g/day. For the same molecule, the “FFA rate of turnover” value ([2]; EtnGpl, MEP) was 0.054 ± 0.017 %/day, the “JFA net incorporation rate” value ([2]; EtnGpl, MEP) was 3.1 ± 0.81 nmol/g/day and the “Jin net incorporation rate” value ([2]; EtnGpl, MEP) was 0.71 ± 0.1 nmol/g/day. The “FFA rate of turnover” value ([2]; EtnGpl, Vehicle) was 0.13 ± 0.023 %/day, the “JFA net incorporation rate” value ([2]; EtnGpl, Vehicle) was 7.6 ± 1.5 nmol/g/day and the “Jin net incorporation rate” value ([2]; EtnGpl, Vehicle) was 0.92 ± 0.22 nmol/g/day. The “FFA rate of turnover” value ([2]; Total PL, MEP) was 0.022 ± 0.0035 %/day, the “JFA net incorporation rate” value ([2]; Total PL, MEP) was 1.9 ± 0.3 nmol/g/day and the “Jin net incorporation rate” value ([2]; Total PL, MEP) was 0.45 ± 0.044 nmol/g/day. For the same molecule, the “FFA rate of turnover” value ([2]; Total PL, Vehicle) was 0.091 ± 0.0089 %/day, the “JFA net incorporation rate” value ([2]; Total PL, Vehicle) was 7.9 ± 0.97 nmol/g/day and the “Jin net incorporation rate” value ([2]; Total PL, Vehicle) was 1.0 ± 0.19 nmol/g/day.

In the case of `CC/C=C\C/C=C\C/C=C\C/C=C\C/C=C\CCCCCC(=O)O` [EPA→n-3 DPA], the “FFA rate of turnover” value ([2]; ChoGpl, MEP) was 178 ± 41 %/day, the “JFA net incorporation rate” value ([2]; ChoGpl, MEP) was 6.2 ± 0.91 nmol/g/day and the “Jin net incorporation rate” value ([2]; ChoGpl, MEP) was 1.4 ± 0.12 nmol/g/day. For the same molecule, the “FFA rate of turnover” value ([2]; ChoGpl, Vehicle) was 192 ± 25 %/day, the “JFA net incorporation rate” value ([2]; ChoGpl, Vehicle) was 6.5 ± 0.92 nmol/g/day and the “Jin net incorporation rate” value ([2]; ChoGpl, Vehicle) was 0.79 ± 0.15 nmol/g/day. For the same molecule, the “FFA rate of turnover” value ([2]; EtnGpl, MEP) was 153 ± 44 %/day, the “JFA net incorporation rate” value ([2]; EtnGpl, MEP) was 13 ± 3.5 nmol/g/day and the “Jin net incorporation rate” value ([2]; EtnGpl, MEP) was 3.0 ± 0.43 nmol/g/day. For the same molecule, the “FFA rate of turnover” value ([2]; EtnGpl, Vehicle) was 147 ± 30 %/day, the “JFA net incorporation rate” value ([2]; EtnGpl, Vehicle) was 12 ± 2.5 nmol/g/day and the “Jin net incorporation rate” value ([2]; EtnGpl, Vehicle) was 1.5 ± 0.36 nmol/g/day. The “FFA rate of turnover” value ([2]; PtdIns, MEP) was 260 ± 113 %/day, the “JFA net incorporation rate” value ([2]; PtdIns, MEP) was 1.6 ± 0.77 nmol/g/day and the “Jin net incorporation rate” value ([2]; PtdIns, MEP) was 0.39 ± 0.22 nmol/g/day. The “FFA rate of turnover” value ([2]; PtdIns, Vehicle) was 336 ± 62 %/day, the “JFA net incorporation rate” value ([2]; PtdIns, Vehicle) was 2.3 ± 0.1 nmol/g/day and the “Jin net incorporation rate” value ([2]; PtdIns, Vehicle) was 0.27 ± 0.045 nmol/g/day. For the same molecule, the “FFA rate of turnover” value ([2]; PtdSer, MEP) was 20 ± 3.6 %/day, the “JFA net incorporation rate” value ([2]; PtdSer, MEP) was 1.1 ± 0.11 nmol/g/day and the “Jin net incorporation rate” value ([2]; PtdSer, MEP) was 0.25 ± 0.05 nmol/g/day. The “FFA rate of turnover” value ([2]; PtdSer, Vehicle) was 31 ± 11 %/day, the “JFA net incorporation rate” value ([2]; PtdSer, Vehicle) was 1.8 ± 0.45 nmol/g/day and the “Jin net incorporation rate” value ([2]; PtdSer, Vehicle) was 0.21 ± 0.068 nmol/g/day. The “FFA rate of turnover” value ([2]; Total PL, MEP) was 149 ± 35 %/day, the “JFA net incorporation rate” value ([2]; Total PL, MEP) was 21 ± 3.3 nmol/g/day and the “Jin net incorporation rate” value ([2]; Total PL, MEP) was 5.0 ± 0.49 nmol/g/day. The “FFA rate of turnover” value ([2]; Total PL, Vehicle) was 123 ± 34 %/day, the “JFA net incorporation rate” value ([2]; Total PL, Vehicle) was 18 ± 2.2 nmol/g/day and the “Jin net incorporation rate” value ([2]; Total PL, Vehicle) was 2.2 ± 0.44 nmol/g/day.
